{"source": "paper PMC11858854", "about": "“In Vitro and In Vivo Assessment of Pharmacokinetic Profile of Peramivir in the Context of Inhalation Therapy” (Pharmaceuticals, 2025)", "key": {"[1]": {"system": "NCI-H441/dTHP co-culture model", "assay": "Bidirectional transport, NCI-H441/dTHP co-culture model", "format": "in vitro ADME, human", "conditions": "NCI-H441/dTHP, 2 μM", "method": "THP-1 cells were cultured in RPMI-1640 medium (Gibco, Thermo, CA, USA) supplemented with 10% FBS, PS (100 U/mL), and β-Mer (0.05 mM) at 37 °C in a humidified 5% CO2 incubator, and the medium was changed every other day. THP-1 cells were seeded at 4 × 10^5 cells/mL in six-well plates and induced for 48 h by adding medium containing a final concentration of 100 ng/mL PMA.\nThen, the differentiated cells were seeded at 5 × 10^4 cells/well on the surface of NCI-H441 cells 10 days after air–liquid culture and continued to co-culture for 24 h.\nWe removed the liquid from the apical and basolateral of the Transwell, rinsed the cells three times with a buffer containing HBSS, 10 mM Hepes, and 0.1% BSA (Buffer A), and then added Buffer A (100 µL for the apical side and 600 µL for the basolateral side) for pre-incubation for 30 min at 37 °C. For the transport studies in the apical to basolateral (A-B) direction, 100 μL of pre-warmed test solution (Buffer A containing 2 µM positive control drugs or peramivir) was added to the apical side, while 600 μL of pre-warmed assay buffer, a buffer containing HBSS, 10 mM Hepes, and 1% BSA (Buffer B), was added to the basolateral compartment."}, "human OCTN1": {"target": "T1, human OCTN1 (Homo sapiens, UniProt Q9H015)", "T1 construct": "Huidi Jiang, Zhejiang University; host or cells: MDCK (MDCK-OCTN1); control MDCK-MOCK", "T1 sequence (Q9H015 1-551)": "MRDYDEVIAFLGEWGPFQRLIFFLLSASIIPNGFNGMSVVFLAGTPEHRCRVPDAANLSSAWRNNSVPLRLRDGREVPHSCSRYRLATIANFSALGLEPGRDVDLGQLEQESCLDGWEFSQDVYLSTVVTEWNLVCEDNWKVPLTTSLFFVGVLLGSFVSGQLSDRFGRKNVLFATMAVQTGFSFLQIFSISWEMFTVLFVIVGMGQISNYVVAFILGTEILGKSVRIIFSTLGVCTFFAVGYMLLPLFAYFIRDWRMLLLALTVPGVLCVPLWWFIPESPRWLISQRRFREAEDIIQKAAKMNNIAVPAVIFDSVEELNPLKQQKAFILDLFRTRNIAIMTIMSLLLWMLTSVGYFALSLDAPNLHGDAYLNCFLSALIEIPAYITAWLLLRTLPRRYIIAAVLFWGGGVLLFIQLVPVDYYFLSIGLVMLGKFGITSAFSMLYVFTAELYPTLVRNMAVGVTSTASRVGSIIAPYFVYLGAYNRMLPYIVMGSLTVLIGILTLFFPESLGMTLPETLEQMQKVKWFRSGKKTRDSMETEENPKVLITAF", "assay": "Uptake study, MDCK cells overexpressing OCTN1", "format": "in vitro ADME", "method": "(§1) All cells (HEK293-MOCK, HEK293-OCT1, HEK293-OCT2, MDCK-MOCK, MDCK-OCTN1, and MDCK-OCTN2) were cultured in DMEM medium supplemented with 10% FBS and PS (100 U/mL), at 37 °C in a humidified 5% CO2 incubator. Cells were seeded on 24-well plates at a density of 1 × 10^4 cells/well. For the uptake assay, the DMEM media were removed, and the cells were washed with pre-warmed Hank’s buffer three times (1 mL/well). Subsequent addition of inhibitor-free/inhibitor-containing buffer was pre-incubated for 30 min at 37 °C prior to the initiation of the uptake experiment. After the pre-incubating buffer was removed, 200 μL of pre-warmed test drugs solution (Hank’s buffer containing 10 µM and 50 µM peramivir) or a mixture of test drugs and inhibitor was added into each well, and the plates were incubated at 37 °C for 5 min. At the end of incubation, cells were washed and lysed as described above. The cell lysate was collected and stored at −40 °C for LC-MS/MS analysis and protein measurement. The negative control (MOCK cells) and positive control were included simultaneously."}, "[2]": {"system": "overexpressed cell lines (uptake transporters)", "assay": "Uptake study by overexpression cell lines, 10 μM substrate", "format": "in vitro ADME", "conditions": "substrate concentration 10 μM", "method": "as §1"}, "[3]": {"conditions": "oral; cited from earlier work"}, "Calu-3 cell model": {"system": "Calu-3 cell model", "assay": "Bidirectional transport, Calu-3 air-liquid culture model", "conditions": "Calu-3, 2 μM, Mean ± SD, n = 3"}, "human MDR1 (P-gp)": {"target": "human MDR1 (P-gp) (Homo sapiens, UniProt P08183)", "sequence (P08183 whole entry)": "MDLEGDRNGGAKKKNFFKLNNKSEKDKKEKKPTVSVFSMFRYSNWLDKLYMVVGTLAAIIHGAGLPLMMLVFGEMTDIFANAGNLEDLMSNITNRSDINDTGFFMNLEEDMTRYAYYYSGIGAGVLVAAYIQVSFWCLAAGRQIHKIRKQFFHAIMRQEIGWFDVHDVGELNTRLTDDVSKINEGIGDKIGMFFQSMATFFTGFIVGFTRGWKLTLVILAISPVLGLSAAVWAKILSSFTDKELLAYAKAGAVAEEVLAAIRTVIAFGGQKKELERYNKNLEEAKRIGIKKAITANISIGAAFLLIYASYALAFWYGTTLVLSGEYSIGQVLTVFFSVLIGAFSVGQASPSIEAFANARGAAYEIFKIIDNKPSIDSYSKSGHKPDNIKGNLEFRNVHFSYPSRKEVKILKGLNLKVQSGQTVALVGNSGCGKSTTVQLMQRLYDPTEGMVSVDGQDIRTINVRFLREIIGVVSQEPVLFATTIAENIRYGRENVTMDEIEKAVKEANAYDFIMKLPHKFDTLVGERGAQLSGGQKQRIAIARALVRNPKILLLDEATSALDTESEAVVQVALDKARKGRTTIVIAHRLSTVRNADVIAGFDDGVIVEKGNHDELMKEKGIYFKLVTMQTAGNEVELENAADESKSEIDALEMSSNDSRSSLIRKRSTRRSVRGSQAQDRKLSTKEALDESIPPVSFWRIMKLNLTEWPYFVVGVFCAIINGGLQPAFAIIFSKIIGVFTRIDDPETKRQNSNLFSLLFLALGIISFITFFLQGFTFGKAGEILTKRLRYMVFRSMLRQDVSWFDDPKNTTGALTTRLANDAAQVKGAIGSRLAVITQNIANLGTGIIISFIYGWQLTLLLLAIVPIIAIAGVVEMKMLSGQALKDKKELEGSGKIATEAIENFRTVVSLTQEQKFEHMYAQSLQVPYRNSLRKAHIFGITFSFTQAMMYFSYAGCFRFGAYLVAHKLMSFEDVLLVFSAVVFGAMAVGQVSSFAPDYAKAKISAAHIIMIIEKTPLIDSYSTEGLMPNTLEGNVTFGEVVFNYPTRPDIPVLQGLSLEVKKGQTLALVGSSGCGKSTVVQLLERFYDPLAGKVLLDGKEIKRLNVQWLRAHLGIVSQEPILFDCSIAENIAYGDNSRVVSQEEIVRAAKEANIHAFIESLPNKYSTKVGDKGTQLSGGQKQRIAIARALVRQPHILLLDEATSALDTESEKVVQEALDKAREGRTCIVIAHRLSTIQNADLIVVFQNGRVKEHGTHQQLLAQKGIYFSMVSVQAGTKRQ", "assay": "Permeability assay, LLC-PK1-MDR1 cells overexpressing P-gp", "quoted_text": "When the cell transport system was mature in culture, experiments were performed. […] When assessing permeability in basolateral to apical (B-A) direction, 100 μL of pre-warmed Buffer B and 600 μL of pre-warmed test solutions were added to the apical and basolateral compartments, respectively. The Transwells® were placed in an incubator at 37 °C and 5% CO2 for a duration of 2 h. At the end of the incubation period, the samples in the apical and basolateral sides were collected separately and were briefly kept at a temperature of −40 °C for LC-MS/MS analysis. […] The cells were transferred to Transwell® plates (Corning, NY, USA) at a density of 2 × 10^4 cells/well with 200 μL of cell suspension per well, while 850 μL of complete medium was added to the basolateral chamber. […] The samples were collected separately and were briefly kept at a temperature of −40 °C for LC-MS/MS analysis."}, "[4]": {"conditions": "LLC-PK1-MDR1, 2 μM, Mean ± SD, n = 3"}}, "data": [{"compound": "CCC(CC)[C@H](NC(C)=O)[C@@H]1[C@H](O)[C@@H](C(=O)O)C[C@H]1N=C(N)N", "note": "[Peramivir]", "values": [{"measurement": "ER", "setting": "[1]", "result": 0.75}, {"measurement": "Papp A-B", "setting": "[1]; Mean ± SD, n = 3", "result": "1.19 ± 0.16 ×10−6 cm/s"}, {"measurement": "Papp B-A", "setting": "[1]; Mean ± SD, n = 3", "result": "0.9 ± 0.17 ×10−6 cm/s"}, {"measurement": "OCTN1 substrate status", "setting": "human OCTN1; MDCK-OCTN1", "result": "does not conclusively establish peramivir as a substrate for OCTN1"}, {"measurement": "transporter-mediated uptake ratio (UR value)", "setting": "human OCTN1; MDCK-OCTN1, 50 μM", "result": 3.19}, {"measurement": "inhibition ratio (IR value)", "setting": "human OCTN1; MDCK-OCTN1, 50 μM, inhibitor quinidine (500 μM)", "result": 40.22, "unit": "%"}, {"measurement": "concentration of peramivir in uptake experiment (below the detection limit)", "setting": "[2]", "result": "< 2", "unit": "nM"}, {"measurement": "oral bioavailability", "setting": "[3]", "result": 3, "unit": "%"}, {"measurement": "Papp A-B", "setting": "Calu-3 cell model", "result": "BLQ"}, {"measurement": "Papp B-A", "setting": "Calu-3 cell model", "result": "BLQ"}, {"measurement": "Papp A-B", "setting": "human MDR1 (P-gp); [4]", "result": "BLQ"}, {"measurement": "Papp B-A", "setting": "human MDR1 (P-gp); [4]", "result": "0.23 ± 0.03 ×10−6 cm/s"}, {"measurement": "P-gp transporter substrate status", "setting": "human MDR1 (P-gp); Papp(B→A) LLC-PK1-MDR1 vs LLC-PK1-MOCK", "result": "not a substrate of the P-gp transporter"}]}]}
